Experimental data as given in patent US7378397B2 (The Provost, Fellows and Scholars of the College of the …, priority 2000, dated 2008).
Where a SMILES comes first, the peptide text is derived from it. [ ]: non-standard residue; d: D form. pGlu = O=C1CC[C@@H](C(=O)O)N1

Tested on: Male Wistar rats
Experiment: behavioural effects (activity score, WDS, locomotion) after i.p. administration
Type: in vivo, rat
Protocol: Methods: Behavioural studies were conducted using experimentally naïve Male Wistar rats (200-250 g) maintained in a temperature controlled (21° C.), artificially-lighted (12 hr light cycle) room with free access to food and water. Behavioural effects of TRH±TRH-DE inhibitor following intraperitoneal (i.p.) administration: On the day of the experiment, animals were singly housed in perspex cages (30×20×20 cm) and allowed to acclimatize for 20 min. After this period, two baseline measurements of behaviour were made at 10 and 5 min prior to administration of drugs. […] Animals were then observed by two independent observers who were blind to treatment, every 5 min for 30 sec. Blocks of 5 animals were treated at a time, 1 per drug group. Blocks were repeated 5 times. The occurrence of individual behaviours were noted using a behavioural check list, which included grooming, locomotion, rearing, chewing, sniffing, head weave, tail elevation, and/or straub tail and WDS behaviours. These behaviours were summed to yield an overall activity count. Animals were videotaped for separate subsequent analysis of WDS. All WDS behaviours occurring during each 5 min interval after drug administration were counted. The statistical significance of differences between behavioural effects of treatments was determined using the Student's t-test or ANOVA, followed by a post-ANOVA test, as indicated. Radioligand binding data were analysed using non-linear curve fitting software (Prism, Graph Pad Software Inc.). IC50 values calculated from competition experiments were converted to Ki values using the Cheng-Prusoff (41) equation Ki=IC50/(1+L/Kd), where L=ligand concentration and Kd=the apparent dissociation constant for [^3[…].

NC(=O)C[C@H](NC(=O)[C@@H]1CCC(=O)N1)C(=O)N1CCC[C@H]1C(N)=O [Glp-Asn-ProNH2, pyroglutamyl-asparaginyl-prolineamide] ([pGlu]-Asn-Pro-NH2)
increase in locomotion (i.p. administration, 10 mg/kg): not detected | rat activity scores compared with saline (i.p., 10 mg/kg each, 40 min post injection): significantly increased activity counts
